pIC50: −log10 of the molar value. Where two headings read alike, the source gives them in different places.
Assays:
[1] = system: 3D7-strain P. falciparum asexual parasites; assay: P. falciparum asexual growth inhibition assay (Pf GIA); format: cell-based, Plasmodium falciparum; details: dose response confirmation; read-out: Pf asexual growth inhibition assays IC50
Method in brief: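 0.25% parasitemia, 2% Hct, RPMI/HEPES/hypoxanthine/5% Albumax; compound dose response, 72 h, 37°C, 5% CO2, 5% O2, 90% N2. Freeze-thaw, then LDH assay, A650. % inhibition vs chloroquine (50 μM)/DMSO, mean of 3 independent runs.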

[2] = system: HepG2 cells; assay: HepG2 cytotoxicity assay; details: for pIC50: read-out: HepG2 cytotoxicity assay IC50, dose response confirmation; for Pb ODA (this manuscript) HepG2 cytoxicity: HepG2 cytotoxicity listed with the Pb ODA data set (this manuscript)
Method in brief: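 Percent inhibition derived from fluorescent viability readout, normalised to DMSO (negative) and 50 μM doxorubicin (positive). Compound incubation lasted 48 h at 37°C, 5% CO2, with 2,500 HepG2 cells/well in MEM plus 10% FBS and 1% NEAA.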

[3] = system: P. berghei ookinete development; details: for % inhibition, Replicate A / % inhibition, Replicate B: primary screen at 1 μM
[4] = unified HepG2 value across the three screens
[5] = read-out: Pb ODA IC50, this manuscript
[6] = read-out: Pb Ookinete development assay IC50, dose response confirmation
[7] = HepG2 values of the three screens unified
[8] = read-out: Pb ODA (this manuscript) IC50, P. berghei ookinete development assay, this manuscript

## Cc1noc(C)c1-c1cccc(CNCc2ccc(-c3ccc(-c4nc5cccc(C)c5[nH]4)cc3)cc2)c1.O=C(O)C(F)(F)F [TCMDC-133061]
[1]
  pIC50: 6.92
[2]
  pIC50: 5.10
[2]; [4]
  Unified cytotox: 7.94 µM
[3]; 1: YES, 0: NO
  Is compound selective in assay? Pb ODA active?: 0 (0: NO)
[3]
  % inhibition, Replicate A: 50.05%
  % inhibition, Replicate B: 37.24%
[3]; [5]
  pIC50: 5.58
[3]; [6]
  pIC50: 5.57

## CCN1CCN(CCCNc2c3ccccc3nc3ccccc23)CC1.Cl [TCMDC-137546]
[1]
  pIC50: 6.21
[2]
  HepG2 cytoxicity (Pb ODA, this manuscript): 9.12 µM
  pIC50: 5.04
[2]; [7]
  Unified cytotox: 9.12 µM
[3]; 1: YES, 0: NO
  Is compound selective in assay? Pb ODA active?: 0 (0: NO)
[3]
  % inhibition, Replicate A: 55.87%
  % inhibition, Replicate B: 53.70%
[3]; [5]
  pIC50: 5.52
[3]; [6]
  pIC50: 5.52

## CC(C)Cn1ncc2c3c(N)nc(N)nc3ccc21 [TCMDC-137970]
[1]
  pIC50: 7.10
[2]
  Pb ODA (this manuscript) HepG2 cytoxicity: 0.11 µM
  pIC50: 6.96
[3]
  Is compound selective in assay? Pb ODA active?: 0 (key: 1: YES; 0: NO)
  % inhibition, Replicate A: 76.14%
  % inhibition, Replicate B: 41.76%
[3]; [8]
  pIC50: 5.76
[3]; [6]
  pIC50: 5.76

## CCn1c(CN2CCC(C)CC2)nc2cc(NC(=O)c3cccs3)ccc21 [TCMDC-124730]
[1]
  pIC50: 6.74
[2]
  pIC50: 4.12
[2]; [4]
  Unified cytotox: 75.86 µM
[3]; 1: YES, 0: NO
  Is compound selective in assay? Pb ODA active?: 1 (1: YES)
[3]
  % inhibition, Replicate A: 78.95%
  % inhibition, Replicate B: 101.97%
[3]; [6]
  pIC50: 6.46

## Nc1nc(N)c2c(ccc3c2ncn3Cc2ccccc2)n1 [TCMDC-137749]
[1]
  pIC50: 6.61
[2]
  pIC50: 5.94
[2]; [4]
  Unified cytotox: 1.15 µM
[3]; 1: YES, 0: NO
  Is compound selective in assay? Pb ODA active?: 0 (0: NO)
[3]
  % inhibition, Replicate A: 48.44%
  % inhibition, Replicate B: 74.97%
[3]; [5]
  pIC50: 5.35
[3]; [6]
  pIC50: 5.35

## COc1ccc(Cn2c(Nc3cccc(C(F)(F)F)c3)nc3cc(C(=O)NC(C)C)cnc32)cc1Cl [TCMDC-138556]
[1]
  pIC50: 5.85
[2]
  pIC50: 4.29
[2]; [4]
  Unified cytotox: 51.29 µM
[3]; 1: YES, 0: NO
  Is compound selective in assay? Pb ODA active?: 0 (0: NO)
[3]
  % inhibition, Replicate A: 25.40%
  % inhibition, Replicate B: 50.20%
[3]; [5]
  pIC50: 5.26
[3]; [6]
  pIC50: 5.26

## Cc1[nH]c(C)c(-c2ccc(-c3ccc(C(F)(F)F)cc3C(F)(F)F)nc2)c(=O)c1Br [TCMDC-136013]
[1]
  pIC50: 6.81
[2]
  HepG2 cytoxicity (Pb ODA, this manuscript): 7.41 µM
  pIC50: 5.13
[2]; [7]
  Unified cytotox: 7.41 µM
[3]; 1: YES, 0: NO
  Is compound selective in assay? Pb ODA active?: 1 (1: YES)
[3]
  % inhibition, Replicate A: 94.49%
  % inhibition, Replicate B: 93.70%
[3]; [5]
  pIC50: 6.72
[3]; [6]
  pIC50: 6.73

## COc1cc(F)c2ncc(Cl)c(CCN3CCC(NCc4ccc5c(n4)NC(=O)CO5)CC3)c2c1.Cl [TCMDC-135621]
[1]
  pIC50: 5.59
[2]
  Pb ODA (this manuscript) HepG2 cytoxicity: 27.23 µM
  pIC50: 4.56
[3]
  Is compound selective in assay? Pb ODA active?: 1 (key: 1: YES; 0: NO)
  % inhibition, Replicate A: 69.33%
  % inhibition, Replicate B: 64.08%
[3]; [6]
  pIC50: 5.90

## COc1ccc2nccc(N3CCC(NCCNCc4ccc5c(n4)NC(=O)CO5)C3)c2n1.Cl (centres unmarked) [TCMDC-134548]
[1]
  pIC50: 8.85
[2]
  pIC50: 4.37
[2]; [4]
  Unified cytotox: 42.66 µM
[3]; 1: YES, 0: NO
  Is compound selective in assay? Pb ODA active?: 1 (1: YES)
[3]
  % inhibition, Replicate A: 4.96%
  % inhibition, Replicate B: 51.82%
[3]; [5]
  pIC50: 5.79
[3]; [6]
  pIC50: 5.79

## CN(C)c1ccc(C=Cc2nc(=O)c3ccccc3o2)cc1 [TCMDC-123870]
[1]
  pIC50: 7.39
[2]
  Pb ODA (this manuscript) HepG2 cytoxicity: 100.00 µM
  pIC50: 4.00
[3]
  Is compound selective in assay? Pb ODA active?: 1 (key: 1: YES; 0: NO)
  % inhibition, Replicate A: 83.52%
  % inhibition, Replicate B: 65.62%
[3]; [8]
  pIC50: 6.82
[3]; [6]
  pIC50: 6.81

## CC(=O)c1ccc(Nc2c(C(N)=O)cnc3cc(-c4c(C)noc4C)ccc23)cc1 [TCMDC-136058]
[1]
  pIC50: 5.87
[2]
  Pb ODA (this manuscript) HepG2 cytoxicity: 100.00 µM
  pIC50: 4.00
[3]
  Is compound selective in assay? Pb ODA active?: 1 (key: 1: YES; 0: NO)
  % inhibition, Replicate A: 86.92%
  % inhibition, Replicate B: 80.92%
[3]; [8]
  pIC50: 5.49
[3]; [6]
  pIC50: 5.49

## Nc1c2ccccc2nc2ccc(Cl)cc12 [TCMDC-132029]
[1]
  pIC50: 6.49
[2]
  pIC50: 4.87
[2]; [4]
  Unified cytotox: 13.49 µM
[3]; 1: YES, 0: NO
  Is compound selective in assay? Pb ODA active?: 0 (0: NO)
[3]
  % inhibition, Replicate A: 75.70%
  % inhibition, Replicate B: 81.80%
[3]; [5]
  pIC50: 5.84
[3]; [6]
  pIC50: 5.84

## CCn1c(C(C)C)cc2c3c(N)nc(N)nc3ccc21 [TCMDC-137856]
[1]
  pIC50: 8.20
[2]
  HepG2 cytoxicity (Pb ODA, this manuscript): 0.00302 µM
  pIC50: 8.52
[2]; [7]
  Unified cytotox: 0.00302 µM
[3]; 1: YES, 0: NO
  Is compound selective in assay? Pb ODA active?: 0 (0: NO)
[3]
  % inhibition, Replicate A: 104.91%
  % inhibition, Replicate B: 74.96%
[3]; [5]
  pIC50: 6.23
[3]; [6]
  pIC50: 6.23

## CC1CN(Cc2ccc(-c3ccc(-c4nc5cc(F)ccc5[nH]4)cc3)cc2)CC(C)O1.O=C(O)C(F)(F)F (centres unmarked) [TCMDC-133831]
[1]
  pIC50: 5.91
[2]
  Pb ODA (this manuscript) HepG2 cytoxicity: 24.55 µM
  pIC50: 4.61
[3]
  Is compound selective in assay? Pb ODA active?: 1 (key: 1: YES; 0: NO)
  % inhibition, Replicate A: 81.24%
  % inhibition, Replicate B: 52.13%
[3]; [6]
  pIC50: 5.93

## Cc1[nH]c(C)c(-c2ccc(-c3cccc(Cl)c3)nc2)c(=O)c1Br [TCMDC-136160]
[1]
  pIC50: 6.60
[2]; [7]
  Unified cytotox: 100.00 µM
[2]
  pIC50: 4.00
[3]; 1: YES, 0: NO
  Is compound selective in assay? Pb ODA active?: 1 (1: YES)
[3]
  % inhibition, Replicate A: 97.52%
  % inhibition, Replicate B: 67.64%
[3]; [5]
  pIC50: 5.68
[3]; [6]
  pIC50: 5.68

## Cc1cccc(Nc2nc(NCCCCN)nc3cc[nH]c(=O)c23)c1.O=C(O)C(F)(F)F [TCMDC-134946]
[1]
  pIC50: 6.31
[2]
  pIC50: 4.54
[2]; [4]
  Unified cytotox: 28.84 µM
[3]; 1: YES, 0: NO
  Is compound selective in assay? Pb ODA active?: 0 (0: NO)
[3]
  % inhibition, Replicate A: 57.54%
  % inhibition, Replicate B: 45.06%
[3]; [5]
  pIC50: 5.51
[3]; [6]
  pIC50: 5.51

## COc1cc(F)c2ncc(Cl)c(CCN3CCC(NCc4ccc5c(c4)NC(=O)CO5)CC3)c2c1.Cl [TCMDC-135623]
[1]
  pIC50: 6.47
[2]
  Pb ODA (this manuscript) HepG2 cytoxicity: 12.30 µM
  pIC50: 4.91
[3]
  Is compound selective in assay? Pb ODA active?: 1 (key: 1: YES; 0: NO)
  % inhibition, Replicate A: 70.96%
  % inhibition, Replicate B: 86.73%
[3]; [8]
  pIC50: 6.27
[3]; [6]
  pIC50: 6.27

## CCOC(=O)[C@H](Cc1cc([N+](=O)[O-])c(Oc2ccc(OC)c(Cc3ccc(OC)c(C(C)C)c3)c2)c([N+](=O)[O-])c1)NC(=O)C(F)(F)F [TCMDC-139398]
[1]
  pIC50: 5.02
[2]
  pIC50: 4.00
[2]; [4]
  Unified cytotox: 100.00 µM
[3]; 1: YES, 0: NO
  Is compound selective in assay? Pb ODA active?: 1 (1: YES)
[3]
  % inhibition, Replicate A: 63.87%
  % inhibition, Replicate B: 33.42%
[3]; [5]
  pIC50: 5.31
[3]; [6]
  pIC50: 5.31

## CCc1c(C)nc(-n2nc(C)cc2NC(=O)C(CC)c2ccccc2)[nH]c1=O (centres unmarked) [TCMDC-124935]
[1]
  pIC50: 6.25
[2]
  Pb ODA (this manuscript) HepG2 cytoxicity: 0.95 µM
  pIC50: 6.02
[3]
  Is compound selective in assay? Pb ODA active?: 0 (key: 1: YES; 0: NO)
  % inhibition, Replicate A: 47.36%
  % inhibition, Replicate B: 55.92%
[3]; [8]
  pIC50: 5.06
[3]; [6]
  pIC50: 5.06
